Reference: ChEMBL document CHEMBL1143114, “Preparation and affinity profile of novel nicotinic ligands” (Bioorg Med Chem Lett, 2008)
Activity calls are given as the source filed them. The calls are words filed in the database; no cut-off is given here.

Tests used:
[1] = biological target: Muscarinic acetylcholine receptor; assay: Displacement of [3H]oxotremorine from muscarinic receptor in rat brain; assay type: tissue-based
[2] = biological target: Neuronal acetylcholine receptor; alpha4/beta2 (Rattus norvegicus, UniProt P09483+P12390); assay: Displacement of [3H]cystisine from nicotinic alpha-4-beta-2 receptor in rat brain; assay type: tissue-based
[3] = biological target: Neuronal acetylcholine receptor subunit alpha-7 (Rattus norvegicus, UniProt Q05941); assay: Displacement of [3H]alpha-bungaro-toxine from nicotinic alpha-7 receptor in rat brain; assay type: tissue-based
Rattus norvegicus [4] = species: Rattus norvegicus; assay: Increase in cortical acetyl choline levels in rat by microdialysis; assay type: functional, organism-based
Rattus norvegicus [5] = species: Rattus norvegicus; assay: Effect on memory in Wistar rat by social recognition test; assay type: functional, organism-based

Sequence of Neuronal acetylcholine receptor; alpha4/beta2 (P09483 whole entry): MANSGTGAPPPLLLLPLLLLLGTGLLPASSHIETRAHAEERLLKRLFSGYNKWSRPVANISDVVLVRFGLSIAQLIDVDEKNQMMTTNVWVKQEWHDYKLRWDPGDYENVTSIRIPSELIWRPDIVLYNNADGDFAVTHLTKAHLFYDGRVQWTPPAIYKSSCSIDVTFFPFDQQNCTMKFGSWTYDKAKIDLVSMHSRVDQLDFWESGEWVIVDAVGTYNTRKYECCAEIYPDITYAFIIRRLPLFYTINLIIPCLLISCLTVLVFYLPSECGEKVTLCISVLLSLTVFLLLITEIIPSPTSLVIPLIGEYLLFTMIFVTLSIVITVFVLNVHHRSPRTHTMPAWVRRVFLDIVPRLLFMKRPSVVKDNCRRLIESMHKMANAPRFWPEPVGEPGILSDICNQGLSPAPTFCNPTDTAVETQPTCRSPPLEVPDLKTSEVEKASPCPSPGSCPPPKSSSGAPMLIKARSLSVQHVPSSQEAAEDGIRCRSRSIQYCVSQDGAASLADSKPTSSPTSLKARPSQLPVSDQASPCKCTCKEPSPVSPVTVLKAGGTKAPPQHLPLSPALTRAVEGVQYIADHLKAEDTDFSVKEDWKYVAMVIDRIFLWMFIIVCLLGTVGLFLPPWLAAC
Sequence of Neuronal acetylcholine receptor; alpha4/beta2 (P12390 whole entry): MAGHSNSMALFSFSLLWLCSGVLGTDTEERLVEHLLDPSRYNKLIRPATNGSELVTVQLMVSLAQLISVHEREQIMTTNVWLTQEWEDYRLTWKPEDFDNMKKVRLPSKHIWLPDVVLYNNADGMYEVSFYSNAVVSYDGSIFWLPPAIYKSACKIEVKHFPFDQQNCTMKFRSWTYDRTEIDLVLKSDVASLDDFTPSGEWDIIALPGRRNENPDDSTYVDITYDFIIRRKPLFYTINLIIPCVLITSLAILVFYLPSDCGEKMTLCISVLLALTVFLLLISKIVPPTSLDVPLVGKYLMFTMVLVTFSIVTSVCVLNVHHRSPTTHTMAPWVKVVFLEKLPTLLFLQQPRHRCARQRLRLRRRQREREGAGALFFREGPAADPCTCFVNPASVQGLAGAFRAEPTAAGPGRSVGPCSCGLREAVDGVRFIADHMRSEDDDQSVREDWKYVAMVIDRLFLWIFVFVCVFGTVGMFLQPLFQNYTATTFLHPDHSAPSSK
Sequence of Neuronal acetylcholine receptor subunit alpha-7 (Q05941 whole entry): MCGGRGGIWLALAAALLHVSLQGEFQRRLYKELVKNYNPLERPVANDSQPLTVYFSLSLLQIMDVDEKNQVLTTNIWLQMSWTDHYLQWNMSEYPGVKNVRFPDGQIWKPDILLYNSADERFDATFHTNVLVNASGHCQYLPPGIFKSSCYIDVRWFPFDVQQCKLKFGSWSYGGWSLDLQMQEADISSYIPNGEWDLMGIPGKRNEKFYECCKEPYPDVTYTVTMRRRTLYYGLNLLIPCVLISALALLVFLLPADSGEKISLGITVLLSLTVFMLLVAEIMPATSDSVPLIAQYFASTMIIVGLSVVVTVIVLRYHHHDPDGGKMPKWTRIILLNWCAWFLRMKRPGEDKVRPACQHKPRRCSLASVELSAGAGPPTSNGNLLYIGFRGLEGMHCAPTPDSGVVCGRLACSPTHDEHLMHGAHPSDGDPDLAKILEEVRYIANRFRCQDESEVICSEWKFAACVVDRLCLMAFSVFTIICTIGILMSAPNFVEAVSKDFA

CNC1(CCCOc2cccnc2)CC1.O=C(O)/C=C/C(=O)O
Ki [1]: > 10000 nM
Ki [2]: 2460 nM
Ki [3]: > 10000 nM

CNC1(COc2cnc(Cl)c(Br)c2)CC1.Cl
Ki [1]: > 10000 nM
Ki [2]: 5.37 nM
Ki [3]: > 10000 nM

CN(C)C1(COc2cnc(Cl)c(Br)c2)CC1
Ki [2]: 110 nM

CN(C)C1(COc2ccc(Br)nc2)CC1
Ki [2]: 394 nM

CNC1(COc2ccc(Br)nc2)CC1.Cl
Ki [1]: > 10000 nM
Ki [2]: 38.8 nM
Ki [3]: > 10000 nM

CNC1(CCOc2cccnc2)CC1.O=C(O)/C=C/C(=O)O
Ki [1]: > 10000 nM
Ki [2]: 109 nM
Ki [3]: > 10000 nM

CNC1(/C=C\COc2cccnc2)CC1.Cl
Ki [1]: > 10000 nM
Ki [2]: 2280 nM
Ki [3]: > 10000 nM

c1cncc(OCC2(N3CCCC3)CC2)c1
Ki [1]: > 10000 nM
Ki [2]: 1610 nM
Ki [3]: > 10000 nM

CNC1(COc2ccc(Cl)nc2)CC1.Cl
Ki [1]: > 10000 nM
Ki [2]: 13 nM
Ki [3]: > 10000 nM

C=Cc1cncc(OCC2(NC)CC2)c1.Cl
Ki [1]: > 10000 nM
Ki [2]: 70.1 nM
Ki [3]: > 10000 nM

CNC1(CCc2cccnc2)CC1.Cl
Ki [1]: > 10000 nM
Ki [2]: 251 nM
Ki [3]: 1910 nM

Cl.NC1(COc2cccnc2)CC1
Ki [1]: > 10000 nM
Ki [2]: 34 nM
Ki [3]: > 10000 nM

CNC1(COc2cncc(Br)c2)CC1.Cl
Ki [1]: > 10000 nM
Ki [2]: 1.07 nM
Ki [3]: > 10000 nM

CN(C)C1(COc2ccc(Cl)nc2)CC1
Ki [2]: 304 nM

CN(C)C1(COc2cccnc2)CC1.Cl
Ki [1]: > 10000 nM
Ki [2]: 95 nM
Ki [3]: > 10000 nM

C#Cc1cncc(OCC2(NC)CC2)c1.Cl
Ki [1]: > 10000 nM
Ki [2]: 6.56 nM
Ki [3]: > 10000 nM

Cc1ccc(OCC2(N)CC2)cn1
Ki [2]: 266 nM

CNC1(/C=C/c2cccnc2)CC1.O=C(O)/C=C/C(=O)O
Ki [1]: > 10000 nM
Ki [2]: 1160 nM
Ki [3]: 3460 nM

CNC1(COc2ccc(C)nc2)CC1.Cl
Ki [1]: > 10000 nM
Ki [2]: 40 nM
Ki [3]: > 10000 nM

Cc1ccc(OCC2(N(C)C)CC2)cn1
Ki [2]: 1090 nM

CN(C)C1(COc2cncc(Br)c2)CC1
Ki [2]: 273 nM

CCNC1(COc2cccnc2)CC1
Ki [1]: > 10000 nM
Ki [2]: 1010 nM
Ki [3]: > 10000 nM

NC1(COc2ccc(Cl)nc2)CC1
Ki [2]: 98 nM

CNC1(COc2cccnc2)CC1.Cl
Activity (Rattus norvegicus [4]): Dose-dependent effect
Ki [1]: > 10000 nM
Ki [2]: 3 nM
Ki [3]: > 10000 nM
Activity (Rattus norvegicus [5]): Active

CNC1(/C=C/COc2cccnc2)CC1.Cl
Ki [1]: > 10000 nM
Ki [2]: 1100 nM
Ki [3]: > 10000 nM
